Literature values, collected in patent publication US20240401031A1, “Platform Using iPSC-Derived Cardiomyocytes Carrying Gene Variants as Models of Cardiac Disease and Drug-Response” (SRI INTERNATIONAL, priority 2021, published 2024).

Conditions: source CredibleMeds

SMILES | Risk (Torsade de Pointes)
Cc1cc(Nc2ncc(Cl)c(Nc3ccccc3S(=O)(=O)C(C)C)n2)c(OC(C)C)cc1C1CCNCC1 [Ceritinib] | (PR)
[Cs] [Cesium] | (KR)
CCN(CC)CCCC(C)Nc1ccnc2cc(Cl)ccc12 (centres unmarked) [Chloroquine] | (KR)
CN(C)CCCN1c2ccccc2Sc2ccc(Cl)cc21 [Chlorpromazine] | (KR)
CN(C)CC/C=C1/c2ccccc2Sc2ccc(Cl)cc21 [Chlorprothixene] | (KR)
O=C1CCc2cc(OCCCCc3nnnn3C3CCCCC3)ccc2N1 [Cilostazol] | (KR)
CN/C(=N/CCSCc1nc[nH]c1C)NC#N [Cimetidine] | (CR)
O=C(O)c1cn(C2CC2)c2cc(N3CCNCC3)c(F)cc2c1=O [Ciprofloxacin] | (KR)
COc1cc(N)c(Cl)cc1C(=O)NC1CCN(CCCOc2ccc(F)cc2)CC1OC (centres unmarked) [Cisapride] | (KR)
CN(C)CCCC1(c2ccc(F)cc2)OCc2cc(C#N)ccc21 (centres unmarked) [Citalopram] | (KR)
CC[C@H]1OC(=O)[C@H](C)[C@@H](O[C@H]2C[C@@](C)(OC)[C@@H](O)[C@H](C)O2)[C@H](C)[C@@H](O[C@@H]2O[C@H](C)C[C@H](N(C)C)[C@H]2O)[C@](C)(OC)C[C@@H](C)C(=O)[C@H](C)[C@@H](O)[C@]1(C)O [Clarithromycin] | (KR)
CC(C)/N=c1\cc2n(-c3ccc(Cl)cc3)c3ccccc3nc-2cc1Nc1ccc(Cl)cc1 [Clofazimine] | (PR)
CN1CCN(C2=Nc3ccccc3Sc3ccc(Cl)cc32)CC1 [Clotiapine] | (PR)
O=C(c1ccc(F)c(F)c1Nc1ccc(I)cc1F)N1CC(O)([C@@H]2CCCCN2)C1 [Cobimetinib] | (PR)
COC(=O)[C@H]1[C@@H](OC(=O)c2ccccc2)C[C@@H]2CC[C@H]1N2C [Cocaine] | (KR)
C[C@@H](Oc1cc(-c2cnn(C3CCNCC3)c2)cnc1N)c1c(Cl)ccc(F)c1Cl [Crizotinib] | (PR)
CC(CN(C)C)CN1c2ccccc2Sc2ccc(C#N)cc21 (centres unmarked) [Cyamemazine] | (PR)
CC(C)(C)c1nc(-c2cccc(NS(=O)(=O)c3c(F)cccc3F)c2F)c(-c2ccnc(N)n2)s1 [Dabrafenib] | (PR)
Cc1nc(Nc2ncc(C(=O)Nc3c(C)cccc3Cl)s2)cc(N2CCN(CCO)CC2)n1 [Dasatinib] | (PR)
C[C@]1(COc2ccc(N3CCC(Oc4ccc(OC(F)(F)F)cc4)CC3)cc2)Cn2cc([N+](=O)[O-])nc2O1 [Delamanid] | (PR)
CNCCCN1c2ccccc2CCc2ccccc21 [Desipramine] | (PR)
[2H]C([2H])([2H])Oc1cc2c(cc1OC([2H])([2H])[2H])C1CC(=O)C(CC(C)C)CN1CC2 (centres unmarked) [Deutetrabenazine] | (PR)
Cc1cccc([C@H](C)c2cnc[nH]2)c1C [Dexmedetomidine] | (PR)
C[C@H](N)Cc1ccccc1 [Dextroamphetamine] | (SR)

SMILES | Risk (Torsade de Pointes)
CC(C)N(CCC(C(N)=O)(c1ccccc1)c1ccccn1)C(C)C (centres unmarked) [Disopyramide] | (KR)
CC(CCc1ccc(O)cc1)NCCc1ccc(O)c(O)c1 (centres unmarked) [Dobutamine] | (SR)
CN(CCOc1ccc(NS(C)(=O)=O)cc1)CCc1ccc(NS(C)(=O)=O)cc1 [Dofetilide] | (KR)
NCCc1ccc(O)c(O)c1 [Dopamine] | (SR)
CN(C)CCC=C1c2ccccc2COc2ccccc21 [Doxepin] | (CR)
CCCCc1oc2ccc(NS(C)(=O)=O)cc2c1C(=O)c1ccc(OCCCN(CCCC)CCCC)cc1 [Dronedarone] | (KR)
O=C(CCCN1CC=C(n2c(=O)[nH]c3ccccc32)CC1)c1ccc(F)cc1 [Droperidol] | (KR)
N[C@H](C(=O)O)[C@H](O)c1ccc(O)c(O)c1 [Droxidopa] | (SR)
O=C1Nc2ccc(Cl)cc2[C@@](C#CC2CC2)(C(F)(F)F)O1 [Efavirenz] | (PR)
CCCCCCCC(=O)N[C@H](CN1CCCC1)[C@H](O)c1ccc2c(c1)OCCO2 [Eliglustat] | (PR)
COC(=O)N[C@@H](C)CNc1nccc(-c2cn(C(C)C)nc2-c2cc(Cl)cc(NS(C)(=O)=O)c2F)n1 [Encorafenib] | (PR)
CCc1ccc(C(=O)C(C)CN2CCCCC2)cc1 (centres unmarked) [Eperisone] | (CR)
CNC[C@H](O)c1ccc(O)c(O)c1 [Epinephrine] | (SR)
COc1cccc2c1C(=O)c1c(O)c3c(c(O)c1C2=O)C[C@@](O)(C(=O)CO)C[C@@H]3O[C@H]1C[C@H](N)[C@@H](O)[C@H](C)O1 [Epirubicin] | (PR)
C=C1C[C@@H]2CC[C@@]34C[C@H]5O[C@H]6[C@@H](O3)[C@H]3O[C@H](CC[C@@H]3O[C@H]6[C@H]5O4)CC(=O)C[C@@H]3[C@@H](OC)[C@@H](C[C@H](O)CN)O[C@H]3C[C@H]3O[C@@H](CC[C@@H]1O2)C[C@@H](C)C3=C [Eribulin] | (PR)
CN(C)CCC[C@@]1(c2ccc(F)cc2)OCc2cc(C#N)ccc21 [Escitalopram] | (KR)
COc1ccc2nc([S@@+]([O-])Cc3ncc(C)c(OC)c3C)[nH]c2c1 [Esomeprazole] | (CR)
NC(N)=Nc1nc(CSCCC(N)=NS(N)(=O)=O)cs1 [Famotidine] | (CR)
NC(=O)OCC(COC(N)=O)c1ccccc1 [Felbamate] | (PR)
CCNC(C)Cc1cccc(C(F)(F)F)c1 (centres unmarked) [Fenfluramine] | (SR)
CCCCCCCCc1ccc(CCC(N)(CO)CO)cc1 [Fingolimod] | (PR)
O=c1[nH]cc(F)c(=O)[nH]1 [Fluorouracil] | (PR)
CNCCC(Oc1ccc(C(F)(F)F)cc1)c1ccccc1 (centres unmarked) [Fluoxetine] | (CR)
C[C@@H]1C[C@H]2[C@@H]3C[C@H](F)C4=CC(=O)C=C[C@]4(C)[C@@]3(F)[C@@H](O)C[C@]2(C)[C@@]1(O)C(=O)SCF [Fluticasone] | (SR)

SMILES | Risk (Torsade de Pointes)
NS(=O)(=O)c1cc(C(=O)O)c(NCc2ccco2)cc1Cl [Furosemide] | (CR)
C[C@H]1NCc2cc(-c3ccc4c(=O)c(C(=O)O)cn(C5CC5)c4c3OC(F)F)ccc21 [Garenoxacin] | (CR)
COc1c(N2CCNC(C)C2)c(F)cc2c(=O)c(C(=O)O)cn(C3CC3)c12 (centres unmarked) [Gatifloxacin] | (KR)
CCc1nc(C(N)=O)c(Nc2ccc(N3CCC(N4CCN(C)CC4)CC3)c(OC)c2)nc1NC1CCOCC1 [Gilteritinib] | (PR)
CN1CC[C@@H](NC(=O)Nc2ccc(C#N)cc2)C[C@@H]1c1nc2ccccc2[nH]1 [Glasdegib] | (PR)
CN1C2CCCC1CC(NC(=O)c1nn(C)c3ccccc13)C2 (centres unmarked) [Granisetron] | (PR)
NS(=O)(=O)c1cc2c(cc1Cl)NCNS2(=O)=O [Hydrochlorothiazide] | (CR)
CC[C@H]1CN2CC[C@H]1C[C@@H]2[C@@H](O)c1ccnc2ccc(OC)cc12 [Hydroquinidine] | (KR)
CCN(CCO)CCCC(C)Nc1ccnc2cc(Cl)ccc12 (centres unmarked) [Hydroxychloroquine] | (KR)
OCCOCCN1CCN(C(c2ccccc2)c2ccc(Cl)cc2)CC1 (centres unmarked) [Hydroxyzine] | (CR)
CCCCCCCN(CC)CCCC(O)c1ccc(NS(C)(=O)=O)cc1 (centres unmarked) [Ibutilide] | (KR)
COc1cc(C(C)=O)ccc1OCCCN1CCC(c2noc3cc(F)ccc23)CC1 [Iloperidone] | (PR)
CN(C)CCCN1c2ccccc2CCc2ccccc21 [Imipramine] | (PR)
CCc1cc2c(cc1CC)CC(NC[C@H](O)c1ccc(O)c3[nH]c(=O)ccc13)C2 [Indacaterol] | (SR)
CC1Cc2ccccc2N1NC(=O)c1ccc(Cl)c(S(N)(=O)=O)c1 (centres unmarked) [Indapamide] | (CR)
CC(C)NCC(O)c1ccc(O)c(O)c1 (centres unmarked) [Isoproterenol] | (SR)
COC(=O)C1=C(C)NC(C)=C(C(=O)OC(C)C)C1c1cccc2nonc12 (centres unmarked) [Isradipine] | (PR)
CCC(C)n1ncn(-c2ccc(N3CCN(c4ccc(OCC5COC(Cn6cncn6)(c6ccc(Cl)cc6Cl)O5)cc4)CC3)cc2)c1=O (centres unmarked) [Itraconazole] | (CR)
COc1cc2c(cc1OC)CC(=O)N(CCCN(C)C[C@H]1Cc3cc(OC)c(OC)cc31)CC2 [Ivabradine] | (CR)
N#Cc1ccnc(N2C(=O)CC[C@H]2C(=O)N(c2cncc(F)c2)[C@H](C(=O)NC2CC(F)(F)C2)c2ccccc2Cl)c1 [Ivosidenib] | (PR)
O=C(c1ccc(F)cc1)C1CCN(CCn2c(=O)[nH]c3ccccc3c2=O)CC1 [Ketanserin] | (PR)
CC(=O)N1CCN(c2ccc(OCC3COC(Cn4ccnc4)(c4ccc(Cl)cc4Cl)O3)cc2)CC1 (centres unmarked) [Ketoconazole] | (CR)
CCOC(=O)C1=C(C)NC(C)=C(C(=O)OCC)C1c1ccccc1/C=C/C(=O)OC(C)(C)C [Lacidipine] | (PR)
